Measured values from patent US11730792B2, “Coversin (OmCI) for the treatment of autoimmune blistering diseases: bullous pemphigoid (BP) and epidermolysis bullosa acquisita (EBA)” (VOLUTION IMMUNO PHARMACEUTICALS SA, priority 2017, dated 2023).
Numbering of substitutions follows the chain as printed. Entries after “also recorded” stand apart in the source; their conditions may differ.

Legend:
[1] = target: T1, Ornithodoros moubata Coversin (EV576, OmCI), amino acids 19 to 168 of SEQ ID NO: 2 (SEQ ID NO: 4) (Ornithodoros moubata, UniProt Q5YD59); experiment: LTB4 binding to Coversin by fluorescence titration
T1 sequence (Q5YD59 19-168): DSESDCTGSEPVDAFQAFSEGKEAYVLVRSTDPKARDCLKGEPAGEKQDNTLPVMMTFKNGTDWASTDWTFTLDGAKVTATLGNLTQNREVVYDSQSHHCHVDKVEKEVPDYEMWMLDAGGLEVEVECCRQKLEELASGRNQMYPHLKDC
Description: This may be carried out by may be carried out as follows:
Purified 100 nM solutions of Coversin, in 2 mL PBS were applied in a quartz cuvette (10 mm path length; Hellma, Malheim, Germany) equipped with a magnetic stirrer. Temperature was adjusted to 20° C. and, after equilibrium was reached, protein Tyr/Trp fluorescence was excited at 280 nm (slit width: 15 nm). The fluorescence emission was measured at 340 nm (slit width: 16 nm) corresponding to the emission maximum. […] For calculation of the KD value, data was normalized to an initial fluorescence intensity of 100%, the inner filter effect was corrected using a titration of 3 μM N-acetyl-tryptophanamide solution and data was plotted against the corresponding ligand concentration. Then, non-linear least squares regression based on the law of mass action for bimolecular complex formation was used to fit the data with Origin software version 8.5 (OriginLab, Northampton, Mass., USA) using a published formula (Breustedt et al., 2006).

Experimental EBA [2] = settings: ref [44], cited from earlier work
experimental EBA [3] = experiment: Experimental EBA, prophylactic PAS-L-Coversin versus Coversin (Example 4); type: in vivo, mice; settings: 2.5 mg/kg Coversin; for Clinical score of experimental EBA: prophylactic
Description: (§1) Antibody transfer EBA was induced using a modified version of the protocol described by Sitaru et al., 2005 [43]. Five mice were tested in each treatment group. […] Mice were injected subcutaneously twice daily with three varying doses of Coversin starting […] before the first injection of anti-Col7 IgG (day −2). This application was continued throughout the experiment until its last day on day 11. In the control groups the mice received only the vehicle subcutaneously, or 20 mg/kg methylprednisolone once daily.
(§2) Starting on day 4, the extent of skin lesions was scored in each individual mouse every other day. […] The percentage of the total body surface affected by skin lesions (ABSA) was calculated.
In a further experiment, the effect of PAS-L-Coversin was assessed. Mice were treated with 0.1 mg/kg, 10 mg/kg, 1 mg/kg PAS-L-Coversin, or 2.5 mg/kg Coversin, with the experiment being carried out as described above. […] The sequence of the L-Coversin sequence is a variant of the mature Coversin sequence (SEQ ID NO: 4) in which the following residues have been modified: Ala44 to Asn, Met116 to Gln, Leu117 to Ser, Gly121 to Ala, Leu122 to Asp, Glu123 to Ala and Asp149 to Gly, (referred to as variant 2, sequence is dsesdctgse pvdafqafse gkeayvlvrs tdpkardclk gepNgekqdn tlpvmmtfkn gtdwastdwt ftldgakvta tlgnitqnre vvydsqshhc hvdkvekevp dyemwQSdag ADAveveccr qkleelasgr nqmyphlkGc (SEQ ID NO:23), where the changes relative to the native Coversin sequence of SEQ ID NO:4 are in capitals). Because of the higher molecule weight of the PAS-L-Cov, 10 mg/kg PAS-L-Cov corresponds to 2.5 mg/kg Coversin. In the first experiment (FIG. 6A) the 10 mg/kg dose but not 1 mg/kg or 0.1 mg/kg dose of PAS-L-Coversin reduced ABSA compared to control. In the second experiment (FIG. 6B), the 10 mg/kg dose and the 1 mg/kg but not the 0.1 mg/kg dose of PAS-L-Coversin reduced ABSA compared to control.

[4] = system: Antibody transfer EBA-like skin inflammation; experiment: Passive EBA mouse model, Coversin administered therapeutically from day 5 (Example 2); type: in vivo, C57Bl/6J WT mice; settings: for Two-way ANOVA, vehicle control versus Coversin: all doses used, N=5 per group
Description: The study included the following experimental groups, with 5 mice in each experimental group: • 1. Vehicle (PBS) control group • 2. 125 μg/kg Coversin 2× daily s.c. • 3. 2500 μg/kg Coversin 2× daily s.c.
Antibody transfer EBA-like skin inflammation was induced, as described in Sezin et al.
The treatment of mice with Coversin started on Day 5 of the experiment (Day 0=day of first administration of anti-COL7 antibody). Afterwards, mice were injected 12 hourly s.c. in the scapular region with Coversin or vehicle control until the end of the experiment.
Disease severity was scored. […] The percentage of the absolute body surface affected by skin lesions (ABSA) was calculated. To score the disease, the mice were anesthetized every other day with a mixture of ketamine/xylazine administered i.p. starting day 4 of the experiment.
Two independent experiments were conducted according to this protocol.
Prior to the beginning of the experiment mean weight of the mice was calculated and 2.5 mg/kg and 0.125 mg/kg of the drug were prepared freshly to a final volume of 100 μl in PBS pH 7.2. The drug was prepared freshly, twice daily, 30 minutes before the final injection into the mice. Thereafter, based on the mean weight of the mice the drug was adjusted with PBS pH 7.2 to a concentration appropriate to provide the required mg/kg dose in a final volume of 100 μl. Drug was prepared freshly twice daily, 30 minutes before the final application into the animals. As a vehicle control 100 μl of PBS pH 7.2 was injected s.c into the mice.
ABSA between treatment groups was evaluated by two-way ANOVA conducted using GraphPad Prism 7.

C5 [5] = target: T2, C5 (Rattus norvegicus, UniProt P08650); experiment: Prevention of C5 cleavage by C5 convertase in rat serum; type: biochemical
T2 construct: from tissue; host or cells: rat serum
T2 sequence (P08650 19-1681): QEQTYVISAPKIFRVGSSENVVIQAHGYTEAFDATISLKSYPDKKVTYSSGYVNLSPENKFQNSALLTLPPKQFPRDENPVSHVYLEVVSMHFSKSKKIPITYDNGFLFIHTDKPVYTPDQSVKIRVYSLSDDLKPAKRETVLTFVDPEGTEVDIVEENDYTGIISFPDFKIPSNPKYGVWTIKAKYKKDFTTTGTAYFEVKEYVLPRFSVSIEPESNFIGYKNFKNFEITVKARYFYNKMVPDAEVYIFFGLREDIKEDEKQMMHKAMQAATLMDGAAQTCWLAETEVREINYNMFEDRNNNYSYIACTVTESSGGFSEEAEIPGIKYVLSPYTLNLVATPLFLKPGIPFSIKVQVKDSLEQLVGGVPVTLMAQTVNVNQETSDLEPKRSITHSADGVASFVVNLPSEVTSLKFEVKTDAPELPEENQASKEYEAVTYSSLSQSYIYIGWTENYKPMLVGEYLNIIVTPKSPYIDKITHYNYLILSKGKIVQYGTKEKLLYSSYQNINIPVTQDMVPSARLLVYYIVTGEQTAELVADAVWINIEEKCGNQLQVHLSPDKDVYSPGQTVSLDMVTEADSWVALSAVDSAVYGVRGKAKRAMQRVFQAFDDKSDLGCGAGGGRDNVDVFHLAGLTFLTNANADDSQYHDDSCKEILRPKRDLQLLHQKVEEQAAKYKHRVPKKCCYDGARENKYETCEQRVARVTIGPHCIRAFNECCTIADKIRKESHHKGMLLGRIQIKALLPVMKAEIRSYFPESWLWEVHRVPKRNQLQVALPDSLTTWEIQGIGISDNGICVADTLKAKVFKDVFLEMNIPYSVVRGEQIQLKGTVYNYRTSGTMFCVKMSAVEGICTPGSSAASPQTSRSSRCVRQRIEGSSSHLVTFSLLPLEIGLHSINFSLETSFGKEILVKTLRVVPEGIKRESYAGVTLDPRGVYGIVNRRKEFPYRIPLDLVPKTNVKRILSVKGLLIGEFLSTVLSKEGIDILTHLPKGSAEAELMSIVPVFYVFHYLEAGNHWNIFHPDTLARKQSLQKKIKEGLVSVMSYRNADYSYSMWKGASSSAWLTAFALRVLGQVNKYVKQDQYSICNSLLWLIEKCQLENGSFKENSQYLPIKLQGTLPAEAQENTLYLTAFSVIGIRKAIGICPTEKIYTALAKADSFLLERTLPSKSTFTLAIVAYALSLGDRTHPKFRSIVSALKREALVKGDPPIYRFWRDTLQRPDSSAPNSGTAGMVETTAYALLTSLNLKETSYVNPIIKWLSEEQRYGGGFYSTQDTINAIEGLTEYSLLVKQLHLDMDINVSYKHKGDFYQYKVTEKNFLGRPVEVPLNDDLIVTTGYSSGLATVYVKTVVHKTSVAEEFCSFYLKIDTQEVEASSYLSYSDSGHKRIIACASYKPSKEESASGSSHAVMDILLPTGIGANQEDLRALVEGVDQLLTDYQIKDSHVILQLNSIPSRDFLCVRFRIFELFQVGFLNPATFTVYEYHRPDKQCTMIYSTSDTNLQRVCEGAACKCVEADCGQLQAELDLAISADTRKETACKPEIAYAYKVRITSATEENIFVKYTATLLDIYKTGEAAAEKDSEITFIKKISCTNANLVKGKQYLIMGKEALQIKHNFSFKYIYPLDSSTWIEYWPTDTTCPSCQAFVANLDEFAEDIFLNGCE
Text: (§3) Coversin was isolated from the salivary glands of the tick Ornithodoros moubata. Coversin is an outlying member of the lipocalin family and is the first lipocalin family member shown to inhibit complement activation. Coversin inhibits the classical, alternative and lectin complement pathways by binding to C5 and preventing its cleavage by C5 convertase into C5a and C5b, thus inhibiting both the production of C5a, which is an active (e.g. proinflammatory) peptide, and the formation of the MAC.

C5 [6] = target: T3, C5 (Homo sapiens, UniProt P01031); experiment: Prevention of C5 cleavage by C5 convertase in human serum; type: biochemical; design: from tissue; host or cells: human serum
Text: as §3

C5 [7] = target: T4, C5 (Mus musculus, UniProt P06684); experiment: Prevention of C5 cleavage by C5 convertase in mouse serum; type: biochemical
T4 construct: from tissue; host or cells: mouse serum
T4 sequence (P06684 679-1680 limits assumed): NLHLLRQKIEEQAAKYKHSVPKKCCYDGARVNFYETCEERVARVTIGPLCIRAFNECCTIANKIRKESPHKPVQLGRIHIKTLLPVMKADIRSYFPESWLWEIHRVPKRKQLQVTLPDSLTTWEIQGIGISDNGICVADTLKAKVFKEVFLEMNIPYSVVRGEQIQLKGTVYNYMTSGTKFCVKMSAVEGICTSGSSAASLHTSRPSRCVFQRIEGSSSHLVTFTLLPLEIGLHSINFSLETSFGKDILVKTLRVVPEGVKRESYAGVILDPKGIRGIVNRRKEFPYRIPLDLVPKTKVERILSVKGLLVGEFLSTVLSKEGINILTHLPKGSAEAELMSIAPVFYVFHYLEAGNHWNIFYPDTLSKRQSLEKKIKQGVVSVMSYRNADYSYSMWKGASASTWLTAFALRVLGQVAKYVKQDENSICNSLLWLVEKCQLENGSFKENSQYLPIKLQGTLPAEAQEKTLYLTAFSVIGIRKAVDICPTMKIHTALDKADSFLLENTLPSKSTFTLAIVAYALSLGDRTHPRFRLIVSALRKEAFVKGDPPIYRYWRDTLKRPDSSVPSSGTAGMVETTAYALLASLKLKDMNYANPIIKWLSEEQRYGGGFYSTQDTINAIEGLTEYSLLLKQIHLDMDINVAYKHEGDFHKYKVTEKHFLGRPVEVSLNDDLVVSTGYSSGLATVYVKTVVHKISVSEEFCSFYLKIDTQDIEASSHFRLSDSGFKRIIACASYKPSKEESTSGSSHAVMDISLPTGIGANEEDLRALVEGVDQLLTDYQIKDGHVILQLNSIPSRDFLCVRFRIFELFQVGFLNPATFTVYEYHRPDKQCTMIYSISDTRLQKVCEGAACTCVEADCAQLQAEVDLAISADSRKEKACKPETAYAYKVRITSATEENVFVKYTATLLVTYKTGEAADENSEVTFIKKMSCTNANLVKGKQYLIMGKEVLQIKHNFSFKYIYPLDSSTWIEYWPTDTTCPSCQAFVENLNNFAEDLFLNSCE
T4 sequence (P06684 19-674 partner limits assumed): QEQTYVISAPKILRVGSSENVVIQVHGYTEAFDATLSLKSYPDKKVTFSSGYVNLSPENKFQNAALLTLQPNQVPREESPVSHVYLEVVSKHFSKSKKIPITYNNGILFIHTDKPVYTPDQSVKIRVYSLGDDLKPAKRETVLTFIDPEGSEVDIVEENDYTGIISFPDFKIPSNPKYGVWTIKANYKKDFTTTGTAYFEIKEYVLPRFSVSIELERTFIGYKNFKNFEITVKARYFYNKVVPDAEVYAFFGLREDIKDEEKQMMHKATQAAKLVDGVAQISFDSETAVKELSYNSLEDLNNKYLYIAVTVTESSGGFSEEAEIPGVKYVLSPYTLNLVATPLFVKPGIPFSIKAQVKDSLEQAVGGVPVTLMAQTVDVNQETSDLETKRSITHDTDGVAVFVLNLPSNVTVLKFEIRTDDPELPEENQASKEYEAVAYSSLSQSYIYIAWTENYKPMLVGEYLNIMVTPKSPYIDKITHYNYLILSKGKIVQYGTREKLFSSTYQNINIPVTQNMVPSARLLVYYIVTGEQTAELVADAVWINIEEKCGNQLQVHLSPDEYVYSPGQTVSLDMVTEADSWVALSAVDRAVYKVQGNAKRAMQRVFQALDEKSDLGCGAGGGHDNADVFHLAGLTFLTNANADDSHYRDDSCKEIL
Text: as §3

experimental EBA [8] = experiment: Antibody transfer EBA model, Coversin administered prophylactically (Example 1); type: in vivo, mice; design: Two-way ANOVA, vehicle control versus Coversin: dose or concentration left out as unconfirmed; settings: for Two-way ANOVA, vehicle control versus Coversin: combined experiments 1 and 2; for percentage ABSA: prophylactic
Description: as §1
To generate antibodies directed to murine type VII collagen (“anti-COL7”), New Zealand White rabbits were immunized with 200 μg of a protein mixture containing three different recombinant proteins (“Col7A, B, and C”) derived from the non-collagenous 1 (NC1) domain of collagen VII together with incomplete Freund's adjuvant. IgGs were isolated from the serum of immunized rabbits by use of protein G, and afterwards IgGs were affinity-purified with his-Col7 to specifically obtain rabbit anti-Col7 IgG. Antibodies were quality checked by determining the titer and the potency in the cryosection assay.
as §2
Two independent experiments were conducted.

C5 [9] = target: T3, C5; settings: surface plasmon resonance, ref [31]; cited from earlier work
Target sequence in this assay (P01031 19-1676): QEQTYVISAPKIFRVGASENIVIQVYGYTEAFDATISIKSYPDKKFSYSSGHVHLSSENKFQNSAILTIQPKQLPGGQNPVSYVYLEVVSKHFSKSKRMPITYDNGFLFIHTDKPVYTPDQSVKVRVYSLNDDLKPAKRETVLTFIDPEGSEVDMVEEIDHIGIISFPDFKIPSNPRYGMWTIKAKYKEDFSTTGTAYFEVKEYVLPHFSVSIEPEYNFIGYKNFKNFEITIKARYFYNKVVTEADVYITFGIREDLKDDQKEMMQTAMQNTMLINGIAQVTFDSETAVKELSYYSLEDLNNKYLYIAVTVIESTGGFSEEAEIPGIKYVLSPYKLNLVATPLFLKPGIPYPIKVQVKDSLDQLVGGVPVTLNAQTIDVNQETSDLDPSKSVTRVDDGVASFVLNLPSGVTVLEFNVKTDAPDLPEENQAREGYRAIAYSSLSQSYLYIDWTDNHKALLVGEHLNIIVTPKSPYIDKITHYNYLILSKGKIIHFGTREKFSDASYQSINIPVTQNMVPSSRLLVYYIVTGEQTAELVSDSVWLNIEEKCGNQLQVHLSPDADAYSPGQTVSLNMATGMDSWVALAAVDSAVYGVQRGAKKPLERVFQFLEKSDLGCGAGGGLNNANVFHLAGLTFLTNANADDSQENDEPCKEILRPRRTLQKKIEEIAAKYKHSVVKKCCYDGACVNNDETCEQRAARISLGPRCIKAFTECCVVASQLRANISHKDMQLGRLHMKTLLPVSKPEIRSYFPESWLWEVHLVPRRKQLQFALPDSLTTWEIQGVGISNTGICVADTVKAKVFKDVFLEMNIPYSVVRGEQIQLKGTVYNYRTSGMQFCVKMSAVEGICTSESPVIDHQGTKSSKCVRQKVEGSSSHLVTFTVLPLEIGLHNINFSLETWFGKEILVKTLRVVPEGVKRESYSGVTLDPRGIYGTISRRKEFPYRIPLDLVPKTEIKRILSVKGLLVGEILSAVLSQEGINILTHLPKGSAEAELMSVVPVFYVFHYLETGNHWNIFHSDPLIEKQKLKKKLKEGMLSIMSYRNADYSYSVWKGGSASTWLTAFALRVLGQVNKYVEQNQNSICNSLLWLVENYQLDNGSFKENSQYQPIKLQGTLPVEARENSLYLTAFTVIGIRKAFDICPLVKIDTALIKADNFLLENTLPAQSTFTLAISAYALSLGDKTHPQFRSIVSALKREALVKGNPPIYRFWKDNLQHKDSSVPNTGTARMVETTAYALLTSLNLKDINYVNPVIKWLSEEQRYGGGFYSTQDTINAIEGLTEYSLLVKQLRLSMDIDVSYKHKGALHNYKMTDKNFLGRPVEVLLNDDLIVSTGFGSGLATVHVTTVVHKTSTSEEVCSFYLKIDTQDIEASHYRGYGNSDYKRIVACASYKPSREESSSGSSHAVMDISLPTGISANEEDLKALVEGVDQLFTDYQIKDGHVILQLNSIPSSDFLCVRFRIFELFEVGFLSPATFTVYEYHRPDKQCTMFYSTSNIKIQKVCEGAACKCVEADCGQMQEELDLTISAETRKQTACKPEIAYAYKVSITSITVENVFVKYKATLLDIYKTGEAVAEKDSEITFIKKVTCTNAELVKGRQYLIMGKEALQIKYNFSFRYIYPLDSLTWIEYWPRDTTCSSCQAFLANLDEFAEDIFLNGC

C5 [10] = target: T3, C5; experiment: C5 binding of L-Coversin (method not given); settings: mutated Coversin sequence (variant 2)
Target sequence in this assay (P01031 19-1676): as above

[11] = LTB4 binding of L-Coversin (method not given); settings: mutated Coversin sequence (variant 2)

## CCCCC/C=C\C[C@@H](O)/C=C/C=C/C=C\[C@@H](O)CCCC(=O)O [LTB4, Leukotriene B4]
[1]
  Kd: 0.2 to 0.3 nM

## CC(c1cc2ccccc2s1)N(O)C(N)=O (stereo not shown) [Zileuton, N-[1-(1-benzothien-2-yl)ethyl]-N-hydroxyurea]
Experimental EBA [2]; 0.6-0.8 mg/mouse/day in drinking water, female mice, control group 9.2±0.7
  clinical score day 7: 5.9±0.5 % of affected surface body area
Experimental EBA [2]; from day 7 until end-point, 0.6-0.8 mg/mouse/day
  disease severity as compared to control group: significantly reduced disease severity

## Coversin: tick Ornithodoros moubata protein, amino acids 19 to 168 of SEQ ID NO: 2 (SEQ ID NO: 4); binds C5 and LTB4
Experimental EBA [3]; Example 4, experiment 1 (FIG. 6A)
  Clinical score of experimental EBA: ameliorated disease
Experimental EBA [3]; Example 4, experiment 2 (FIG. 6B)
  Clinical score of experimental EBA: ameliorated disease
Experimental EBA [3]; second experiment (FIG. 6B)
  statistical significance of effect on ABSA: statistically significant effect
[4]; Experiment 1 (FIG. 7), females
  Two-way ANOVA, vehicle control versus Coversin: significant differences
[4]; Experiment 1, 2.5 mg/kg Coversin, vehicle about 7%
  ABSA: effective in reducing ABSA
[4]; Experiment 1, females, 125 and 2500 μg/kg 2× daily s.c. from day 5
  skin inflammation measured by absolute body surface area affected (ABSA), dose dependence: dose-dependently ameliorated skin inflammation
[4]; Experiment 2 (FIG. 8), males
  Two-way ANOVA, vehicle control versus Coversin: significant differences
[4]; Experiment 2 (FIG. 8), males, 125 and 2500 μg/kg 2× daily s.c. from day 5
  skin inflammation, dose dependence: dose-dependently ameliorated skin inflammation
[4]; Experiment 2, 2.5 mg/kg Coversin, vehicle peaked at about 4%
  skin inflammation measured by ABSA: significantly (P<0.01) ameliorated skin inflammation
[4]; the two experiments, up to day 12
  deaths during treatment: no deaths
C5 [5]
  IC50, binding C5 and preventing its cleavage by C5 convertase: approximately 0.02 mg/ml
C5 [6]
  IC50, binding C5 and preventing its cleavage by C5 convertase: approximately 0.02 mg/ml
C5 [7]
  IC50, binding C5 and preventing its cleavage by C5 convertase: approximately 0.02 mg/ml
Experimental EBA [8]; dose 250
  Two-way ANOVA, vehicle control versus Coversin: statistically significant difference
Experimental EBA [8]; dose 2500
  Two-way ANOVA, vehicle control versus Coversin: statistically significant difference
Experimental EBA [8]; combined results of experiments 1 and 2 (FIG. 5), all doses
  Clinical score of experimental EBA: ameliorated disease
Experimental EBA [8]; comparison with similar earlier experiments, particularly at 2.5 mg/kg and 0.25 mg/kg
  reduction of percentage ABSA compared with previously tested agents (Zileuton, methylprednisolone): to a greater degree; also recorded: greater effect
Experimental EBA [8]; experiment 1 (FIG. 3), all doses of Coversin, vs vehicle control group and methylprednisolone group
  Clinical score of experimental EBA: ameliorated disease
Experimental EBA [8]; experiment 2 (FIG. 4), all doses of Coversin, vs vehicle control group and methylprednisolone group
  Clinical score of experimental EBA: ameliorated disease
Experimental EBA [8]; experiment 2 (FIG. 4), only at the 2.5 mg/kg dose
  significance of effect compared to vehicle control group: significant effect
Experimental EBA [8]; first experiment, 0.25 mg/kg dose, P 0.0023 by two tailed t-test
  difference in ABSA between vehicle and treated: 63%
Experimental EBA [8]; first experiment, 0.25 mg/kg dose, day 10, vehicle 6.23+1.1
  mean ABSA score (SD): 2.65+0.4
Experimental EBA [8]; first experiment, Coversin 25 μg/kg s.c. twice daily
  percentage ABSA: reduced
Experimental EBA [8]; first experiment, Coversin 250 μg/kg s.c. twice daily
  percentage ABSA: further reduced
Experimental EBA [8]; first experiment, Coversin 2500 μg/kg s.c. twice daily
  percentage ABSA: further reduced
C5 [9]
  Kd: 1 nM

B1: L-Coversin: SEQ ID NO: 23; SEQ ID NO: 4 with Ala44Asn, Met116Gln, Leu117Ser, Gly121Ala, Leu122Asp, Glu123Ala, Asp149Gly (protein)
chain: T1 sequence (Q5YD59 19-168) with A44N, M116Q, L117S, G121A, L122D, E123A, D149G
modifications: Coversin variant 2
C5 [10]
  C5 binding: does not bind C5
[11]
  LTB4 binding: binds LTB4
